How the values were obtained:
WT CYP3A4 = molecular target: T1, WT CYP3A4 (Homo sapiens, UniProt P08684); assay: Equilibrium spectral binding titration of WT CYP3A4; settings: for Spectral ligand type: WT CYP3A4, Soret band shift; for Spectral changes / low-to-high spin transition induced: WT CYP3A4, saturating ligand
T1 construct: made in house
Method: (§1) Fitting was performed using SigmaPlot software (Grafiti LLC).

CYP3A4 R212A = molecular target: T2, CYP3A4 R212A (Homo sapiens, UniProt P08684, R212A); assay: Equilibrium spectral binding titration of CYP3A4 R212A mutant
T2 construct: made in house
T2 sequence (P08684 with tags, fused parts or gaps R212A): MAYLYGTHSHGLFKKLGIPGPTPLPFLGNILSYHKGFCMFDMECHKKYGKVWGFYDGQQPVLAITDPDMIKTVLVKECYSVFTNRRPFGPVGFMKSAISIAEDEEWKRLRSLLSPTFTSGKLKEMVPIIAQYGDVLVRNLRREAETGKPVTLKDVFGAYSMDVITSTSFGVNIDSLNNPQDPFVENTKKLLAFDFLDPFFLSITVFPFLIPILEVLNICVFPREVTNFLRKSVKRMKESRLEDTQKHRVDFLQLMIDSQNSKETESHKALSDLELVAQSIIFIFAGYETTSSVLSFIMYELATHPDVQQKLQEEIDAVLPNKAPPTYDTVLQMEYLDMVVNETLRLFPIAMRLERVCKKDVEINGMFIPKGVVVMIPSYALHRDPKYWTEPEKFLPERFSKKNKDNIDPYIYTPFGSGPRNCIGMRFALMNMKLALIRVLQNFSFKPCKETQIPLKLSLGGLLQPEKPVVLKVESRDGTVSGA
Method: as §1

CYP3A4 S119A = CYP3A4 S119A (Homo sapiens, UniProt P08684, S119A); assay: biochemical
CYP3A4 S119A, sequence (P08684 with tags, fused parts or gaps S119A): as the sequence (P08684 with tags, fused parts or gaps R212A) above, with S99A, A192R counted along it
Method: Equilibrium titrations of CYP3A4 were conducted in a Cary 300 spectrophotometer at an ambient temperature in 0.1 M phosphate, pH 7.4, containing 20% glycerol and 1 mM dithiothreitol (buffer A). […] Spectral dissociation constants (Kd) were determined from fittings to the plots of the maximal absorbance change (peak-to-trough separations in the difference spectra; ΔA) versus ligand concentration. Fitting was performed using SigmaPlot software (Grafiti LLC). Equation used for one-site ligand binding: Y=X/(Kd+X) where Y represents the fraction of the occupied site, X is the total ligand concentration, and Kd is the equilibrium dissociation constant. Equation used for two-site ligand binding: Y=(Amax1·X/(Kd1+X))+(Amax2·X/(Kd2+X)) where Y is total specific binding, X is the total ligand concentration, Amax1 and Amax2 are maximum absorbance changes due to specific binding to the high- and low-affinity sites, and Kd1 and Kd2 are the dissociation constants for the high- and low-affinity sites, respectively.

CYP3A4 (wild type) = molecular target: T3, CYP3A4 (wild type) (Homo sapiens, UniProt P08684); assay: Equilibrium spectral binding titration of WT CYP3A4; settings: human, recombinant Δ3-22 truncated wild-type CYP3A4 protein, pH 7.4; WT CYP3A4, second of two binding sites; read-out: Kd2 (two-site binding fitting)
T3 construct: made in house
T3 sequence (P08684 with tags, fused parts or gaps): as the sequence (P08684 with tags, fused parts or gaps R212A) above, with A192R counted along it
Method: as §1

[1] = upon intravenous and immediate-release oral administration ref 32; cited from earlier work

T1 sequence (P08684 with tags, fused parts or gaps): as the sequence (P08684 with tags, fused parts or gaps R212A) above, with A192R counted along it

SMILES | Spectral ligand type (WT CYP3A4) | Spectral ligand type (WT CYP3A4; listed as cannabidiol) | Spectral changes / low-to-high spin transition induced (WT CYP3A4) | Spectral changes / low-to-high spin transition induced (WT CYP3A4; listed as cannabinol) | Kd (CYP3A4 R212A) [µM] | Kd (WT CYP3A4) [µM] | Kd (CYP3A4 S119A) [µM] | Observed absorbance change during association to the high-affinity site (WT CYP3A4; WT CYP3A4, share of total absorbance change) [%] | Kd (CYP3A4 (wild type)) [µM] | half-life [1] [h]
C=C(C)[C@@H]1CCC(C)=C[C@H]1c1c(O)cc(CCCCC)cc1O [CBD, cannabidiol] | type I spectral changes | type I ligands | nearly complete high-spin transition | – | – | – | – | – | – | –
CCCCCc1cc(O)c2c(c1)OC(C)(C)c1ccc(C)cc1-2 [CBN, cannabinol] | – | – | only minor spectral changes | only negligible spectral changes | – | – | – | – | – | –
CCCCCc1cc(O)c2c(c1)OC(C)(C)[C@@H]1CCC(C)=C[C@@H]21 [THC, (−)-trans-Δ^9-tetrahydrocannabinol] | type I ligand | – | nearly complete low-to-high spin transition | – | 2.8 ± 0.3 | 1.9 | 3 ± 0.3 | – | – | –
NC(=O)C(c1ccccc1)(c1ccccc1)[C@@H]1CCN(CCc2ccc3c(c2)CCO3)C1 [darifenacin] | type I ligand | – | – | – | – | – | – | ~70 | 712 | 3 to 4

— paper PMC12538432 (The Journal of Biological Chemistry, 2025)
